Assays:
HepG2 cell line = experiment: Cell cycle analysis (PI, flow cytometry); assay type: cell-based, human
Description: Cell cycle analysis was performed to decide if the newly synthesized thienopyrimidine derivatives arrested the cell cycle and at what phase of the cell cycle, the HepG2 and MCF-7 cell lines were arrested. The experiments were performed as previously described by Tolba et al.. HepG2 and MCF-7 cell lines were seeded and incubated with the tested compounds in 6-well plates. After incubation overnight, the cells were washed twice with ice-cold phosphate-buffered saline (PBS), detached by EDTA-trypsinization from the plates, harvested by centrifugation, fixed in ice-cold 70% (v/v) ethanol, and washed with phosphate-buffered saline (PBS, pH 7.2 ± 0.2). The cells were resuspended with 0.1 mg/ml RNase, stained with […] propidium iodide (PI), and analyzed by flow cytometry using a FACSCalibur flow cytometer (BD Biosciences, San Jose, CA). CellQuest software (Becton Dickinson) was used to determine the cell cycle distributions after incubation with 5-FU or tested compounds. Exposure of HepG2 and MCF-7 cell lines to these compounds could interfere with the normal cell cycle distribution.

[1] = system: human breast cancer cell line (MCF-7); experiment: MTT assay, cytotoxicity; assay type: cell-based; conditions: MCF-7; for survival percentage (mean ± SEM): 24 hours
Description: (§1) Cancer cell lines were manipulated according to the method described by Sigounas et al.. In this method, the cell lines were grown as adherent monolayers in T75 flasks with Dulbecco's modified Eagle's medium (DMEM) supplemented with 10% Fetal Bovine Serum (FBS), 2 mM L-glutamine, and 1% streptomycin/penicillin. The cells were left to grow in a CO2 incubator at 37°C, 5% CO2, and 95% humidity until their confluence.
(§2) The 3-[4,5-dimethylthiazol-2-yl]-2,5-diphenyltetrazolium bromide (MTT) colorimetric assay was used to examine the sensitivity of cells to tested compounds (as anticancer drugs), as previously described. This assay depends on the production of a purple formazan derivative from the yellow tetrazolium bromide (MTT) by mitochondrial succinate dehydrogenase in viable cells. The percentage of cell survival was calculated as follows: (1) Percentage of survival=O.D.treated cells/O.D.control cells×100.
(§3) For preliminary screening of the cytotoxicity of synthesized compounds 3a-g, cells exposed to DMSO were used as a control. Plotting the relationship between the survival score and the compound concentration and calculating the IC50 (the concentration required to inhibit cell viability by 50%) were performed for each test compound according to Li et al. in comparison with the reference standard anticancer agent, 5-FU.
(§4) The 3-[4,5-dimethylthiazol-2-yl]-2,5-diphenyltetrazolium bromide (MTT) colorimetric assay was used to examine the sensitivity of cells to tested compounds (as anticancer drugs), as previously described by Hussein et al. (2017). This assay depend on the production of a purple formazan derivative from the yellow tetrazolium bromide (MTT) by mitochondrial succinate dehydrogenase in viable cells. Briefly, after harvesting the cells with 0.25% trypsin, the cell lines were suspended in DMEM. Cells were seeded in 96-well microtiter plates at a concentration of 5×10^4 cell/well in a fresh medium and left to attach to the plates for 24 h before treatment with the tested compounds 3a-g. Test compounds were dissolved in dimethyl sulfoxide (DMSO). After 24 hours, cells were incubated with the appropriate concentration ranges of compounds, the wells were diluted to […] with fresh medium and incubation was continued for 24 hours. Three wells were used for each concentration. After 24 hours of treatment, 20 μl of MTT solution (5mg/ml) was added and subsequently the plates were further incubated for 4 hours to allow the viable cells to biotransform the yellow-colored MTT into purple formazan crystals. The optical density (O.D.) of each well was measured spectrophotometrically at […] with an enzyme-linked immunosorbent assay (ELISA) microplate reader (BioTek, EL-800, USA). The percentage of cell survival was calculated as follows: […]

[2] = system: human liver cancer cell line (HepG2); experiment: MTT assay, cytotoxicity; assay type: cell-based; conditions: HepG2; for survival percentage (mean ± SEM): 24 hours
Description: as §1, §2, §3, §4

Row | Compound | melting point [°C] | survival percentage (mean ± SEM) ([1]; 4.8828125 μg/ml) [%] | survival percentage (mean ± SEM) ([1]; 9.765625 μg/ml) [%] | survival percentage (mean ± SEM) ([1]; 19.53125 μg/ml) [%] | survival percentage (mean ± SEM) ([1]; 39.0625 μg/ml) [%] | survival percentage (mean ± SEM) ([1]; 78.125 μg/ml) [%] | survival percentage (mean ± SEM) ([1]; 156.25 μg/ml) [%] | survival percentage (mean ± SEM) ([1]; 312.5 μg/ml) [%] | survival percentage (mean ± SEM) ([1]; 625 μg/ml) [%] | survival percentage (mean ± SEM) ([1]; 1250 μg/ml) [%] | survival percentage (mean ± SEM) ([1]; 2500 μg/ml) [%] | survival percentage (mean ± SEM) ([1]; 5000 μg/ml) [%] | survival percentage (mean ± SEM) ([1]; 10000 μg/ml) [%] | survival percentage (mean ± SEM) ([2]; 4.8828125 μg/ml) [%] | survival percentage (mean ± SEM) ([2]; 9.765625 μg/ml) [%] | survival percentage (mean ± SEM) ([2]; 19.53125 μg/ml) [%] | survival percentage (mean ± SEM) ([2]; 39.0625 μg/ml) [%] | survival percentage (mean ± SEM) ([2]; 78.125 μg/ml) [%] | survival percentage (mean ± SEM) ([2]; 156.25 μg/ml) [%] | survival percentage (mean ± SEM) ([2]; 312.5 μg/ml) [%] | also measured
1 | CCOC(=O)Cn1c(SCC(=O)Nc2ccc(C(=O)/C=C\c3cccc([N+](=O)[O-])c3)cc2)nc2sc3c(c2c1=O)CCN(C(=O)OCC)C3 [Compound 3c, Ethyl (Z)-3-(2-Ethoxy-2-oxoethyl)-2-((2-((4-(3-(3-nitrophenyl)acryloyl)phenyl)amino)-2-oxoethyl)thio)-4-oxo-3,5,6,8-tetrahydropyrido[4′,3′:4,5]thieno[2,3-d]pyrimidine-7(4H)-carboxylate] | 189 to 190 | 149.3 ± 0.082 | 135.4 ± 0.066 | 140.3 ± 0.197 | 132.0 ± 0.136 | 121.5 ± 0.183 | 110.9 ± 0.063 | 71.1 ± 0.156 | 11.3 ± 0.026 | 7.4 ± 0.003 | 6.4 ± 0.003 | 6.4 ± 0.007 | 5.9 ± 0.002 | 91.5 ± 0.013 | 81.6 ± 0.027 | 69.8 ± 0.027 | 63.0 ± 0.030 | 62.4 ± 0.051 | 22.1 ± 0.011 | 21.1 ± 0.004 | G1 phase cell population (HepG2 cell line): significant increase; %DIP G1 (HepG2 cell line; flow cytometry panel): 55.32%; survival percentage (mean ± SEM) ([2]; 625 μg/ml): 20.6 ± 0.003%; survival percentage (mean ± SEM) ([2]; 1250 μg/ml): 20.1 ± 0.004%; survival percentage (mean ± SEM) ([2]; 2500 μg/ml): 19.0 ± 0.002%; survival percentage (mean ± SEM) ([2]; 5000 μg/ml): 18.8 ± 0.001%; survival percentage (mean ± SEM) ([2]; 10000 μg/ml): 18.0 ± 0.001%
2 | CCOC(=O)N1CCc2c(sc3nc(SCC(=O)Nc4ccc(C(=O)/C=C\c5cc(OC)c(OC)c(OC)c5)cc4)[nH]c(=O)c23)C1 [Compound 3e, Ethyl (Z)-4-Oxo-2-((2-oxo-2-((4-(3-(3,4,5-trimethoxyphenyl)acryloyl)phenyl)amino)ethyl)-thio)-3,5,6,8-tetrahydropyrido[4′,3′:4,5]thieno[2,3-d]pyrimidine-7(4H)-carboxylate] | 167 to 168 | 147.1 ± 0.051 | 131.6 ± 0.132 | 123.4 ± 0.070 | 129.1 ± 0.033 | 109.2 ± 0.084 | 104.2 ± 0.026 | 61.5 ± 0.112 | 38.0 ± 0.030 | 27.8 ± 0.021 | 17.9 ± 0.002 | 16.0 ± 0.000 | 15.9 ± 0.002 | 127.5 ± 0.033 | 114.3 ± 0.141 | 91.9 ± 0.060 | 45.1 ± 0.072 | 21.4 ± 0.073 | 21.1± 0.012 | 19.8 ± 0.005 | cell population in G2/M compared with control cells (HepG2 cell line): substantial increase; cell population in pre-G1 phases compared with control cells (HepG2 cell line): significant increase; survival percentage (mean ± SEM) ([2]; 625 μg/ml): 18.9 ± 0.001%; survival percentage (mean ± SEM) ([2]; 1250 μg/ml): 18.4 ± 0.003%; survival percentage (mean ± SEM) ([2]; 2500 μg/ml): 17.4 ± 0.002%; survival percentage (mean ± SEM) ([2]; 5000 μg/ml): 16.8 ± 0.003%; survival percentage (mean ± SEM) ([2]; 10000 μg/ml): 14.1 ± 0.002%
3 | CCOCc1nc2sc3c(c2c(=O)n1CC(=O)Nc1ccc(C(=O)/C=C\c2cccc([N+](=O)[O-])c2)cc1)CCN(C(=O)OCC)C3 [Compound 3f, Ethyl (Z)-2-(Ethoxymethyl)-3-(2-((4-(3-(3-nitrophenyl)acryloyl)phenyl)amino)-2-oxoethyl)-4-oxo-3,5,6,8-tetrahydropyrido[4′,3′:4,5]thieno[2,3-d]pyrimidine-7(4H)-carboxylate] | 178 to 179 | 149.7 ± 0.082 | 132.2 ± 0.214 | 127.7 ± 0.180 | 122.6 ± 0.121 | 120.2 ± 0.150 | 119.7 ± 0.182 | 92.0 ± 0.141 | 67.1 ± 0.086 | 47.5 ± 0.181 | 6.2 ± 0.004 | 5.1 ± 0.003 | 4.6 ± 0.002 | 149.7 ± 0.200 | 149.1 ± 0.106 | 144.7 ± 0.140 | 119.1 ± 0.122 | 115.9 ± 0.157 | 112.0 ± 0.460 | 77.8 ± 0.071 | cytotoxic activity (in words) [1]: lowest cytotoxic activity; cytotoxic activity (in words) [2]: lowest cytotoxic activity; survival percentage (mean ± SEM) ([2]; 625 μg/ml): 15.3 ± 0.005%; survival percentage (mean ± SEM) ([2]; 1250 μg/ml): 12.6 ± 0.019%; survival percentage (mean ± SEM) ([2]; 2500 μg/ml): 11.7 ± 0.009%; survival percentage (mean ± SEM) ([2]; 5000 μg/ml): 11.6 ± 0.002%; survival percentage (mean ± SEM) ([2]; 10000 μg/ml): 10.7 ± 0.004%

Source: publication PMC8728392, “Synthesis, Anticancer Assessment, and Molecular Docking of Novel Chalcone-Thienopyrimidine Derivatives in HepG2 and MCF-7 Cell Lines” (Oxidative Medicine and Cellular Longevity, 2021)
